Measured values taken from US20020082224A1, “NON-IMMUNOGENIC PRODRUGS AND SELECTABLE MARKERS FOR USE IN GENE THERAPY” (priority 1997, published 2002).

Legend:
HT1080 cells = assay: Tumor growth in nude mice inoculated with parental HT1080 cells, dosed with EP; format: in vivo, nude mice (Balb/c); settings: s.c. inoculation of 5e5 cells, EP dosed 2-10 days after inoculation
Protocol: (§1) hPLAP is able to convert the prodrugs, mitomycin phosphate (MOP) and etoposide phosphate (EP), into an active mitomycin C derivative, mitomycin alcohol, and etoposide. 5e5 HT1080 cells or HT/hPLAP cells (HT1080 cells stably expressing hPLAP) are inoculated subcutaneously into nude mice (Balb/c). Tumor development occurs in 7-14 days. Etoposide phosphate is prepared by the method of […] et al., Cancer Res. 49:5789-92, 1988, or obtained from a pharmacy (e.g., manufactured by Bristol-Myers Squibb). Animals are dosed with EP as described ([…] et al., 1988) 2-10 days after inoculation with cells.

[1] = tested on: HT/hPLAP cells (HT1080 cells stably expressing hPLAP); assay: Tumor growth in nude mice inoculated with HT/hPLAP cells, dosed with EP; format: in vivo, nude mice (Balb/c)
Protocol: as §1

[2] = cited from earlier work
[3] = tested on: acute myeloblastic leukemia (AML); settings: as a single agent; % of patients; cited from earlier work

SMILES: COc1cc([C@@H]2c3cc4c(cc3[C@@H](O[C@@H]3O[C@@H]5CO[C@@H](C)O[C@H]5[C@H](O)[C@H]3O)[C@H]3COC(=O)[C@H]23)OCO4)cc(OC)c1OP(=O)(O)O [EP, etoposide phosphate]
- effect on tumors from parental HT1080 cells (HT1080 cells): resistant to the effect of EP
- specificity of EP effect, HT1080 cells in one flank and HT/hPLAP cells in the contralateral flank ([1]; both cell types in the same animal): specific for cells expressing HPLAP
- effect on tumor growth of HT/hPLAP cells ([1]; s.c. inoculation of 5e5 cells, EP dosed 2-10 days after inoculation): dose-dependent reduction in tumor growth

SMILES: Nc1ccn([C@@H]2O[C@H](CO)[C@@H](O)[C@@H]2O)c(=O)n1 [ara-C, cytosine arabinoside]
- concentrations in the CSF relative to plasma ([2]; IV infusion, after 2 hours of continuous infusion): 50%
- Plasma half life ([2]; due to rapid deamination): less than 20 minutes
- remission induced in patients with acute myeloblastic leukemia (AML) [3]: 50%
